Read-outs that look alike come from different tables or passages of the source.
Target: T1, DPD (Rattus norvegicus, UniProt O89000)
T1 construct: the obtained supernatant was used as a DPD enzyme solution or an OPRT enzyme solution; from tissue; host or cells: liver of 8-week old SD rat; 105,000 g supernatant of homogenate
T1 sequence (O89000 1-1025): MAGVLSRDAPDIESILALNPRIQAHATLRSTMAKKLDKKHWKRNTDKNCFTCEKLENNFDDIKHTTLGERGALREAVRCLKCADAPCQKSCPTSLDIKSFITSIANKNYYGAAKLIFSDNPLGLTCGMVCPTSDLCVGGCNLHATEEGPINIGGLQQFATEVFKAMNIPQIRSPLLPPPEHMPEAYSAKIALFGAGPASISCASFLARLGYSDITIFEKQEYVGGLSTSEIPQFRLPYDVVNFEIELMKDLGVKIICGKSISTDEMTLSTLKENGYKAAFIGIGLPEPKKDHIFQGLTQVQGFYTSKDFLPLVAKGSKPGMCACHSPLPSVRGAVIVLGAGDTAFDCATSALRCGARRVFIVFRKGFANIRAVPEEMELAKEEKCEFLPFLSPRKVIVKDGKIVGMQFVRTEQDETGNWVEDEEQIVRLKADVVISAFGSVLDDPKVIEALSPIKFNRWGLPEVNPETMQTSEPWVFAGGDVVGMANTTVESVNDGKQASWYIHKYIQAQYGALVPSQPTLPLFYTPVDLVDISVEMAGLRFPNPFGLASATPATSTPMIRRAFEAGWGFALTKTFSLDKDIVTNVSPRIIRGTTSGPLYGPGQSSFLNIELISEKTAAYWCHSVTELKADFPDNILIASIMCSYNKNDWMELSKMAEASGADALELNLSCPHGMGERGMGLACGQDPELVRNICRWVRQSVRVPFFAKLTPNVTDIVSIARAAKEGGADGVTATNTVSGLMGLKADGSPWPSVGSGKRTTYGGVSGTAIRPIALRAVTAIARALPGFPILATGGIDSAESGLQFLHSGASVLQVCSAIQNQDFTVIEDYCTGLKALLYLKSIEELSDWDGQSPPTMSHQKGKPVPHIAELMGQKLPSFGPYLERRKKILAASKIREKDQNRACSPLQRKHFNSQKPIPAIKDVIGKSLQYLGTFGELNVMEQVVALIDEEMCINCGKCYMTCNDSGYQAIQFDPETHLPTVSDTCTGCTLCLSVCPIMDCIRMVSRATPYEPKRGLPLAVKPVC
Assay: DPD inhibitory action in vitro (enzyme reaction, tritium-labeled 5-FU as substrate)
Type: biochemical
Description: The resulting product was diluted to concentrations of 1 mM, 100 μM, 10 μM, and 1 μM with a 10 mM potassium phosphate buffer solution (pH 6.0), thereby obtaining Test Liquids 1. The obtained Test Liquids 1 were separately added to the enzyme reaction solution described below to give final concentrations of 200 μM, 20 μM, 2 μM, and 0.2 μM. • (b) Test liquid preparation (2): As a DPD inhibitor, 5-chloro-2,4-dihydroxypyridine (CDHP; gimeracil) was dissolved to a concentration of 10 mM in a 10 mM potassium phosphate buffer solution (pH 6.0). The resulting product was diluted to concentrations of 1 mM, 100 μM, 10 μM, and 1 μM, thereby obtaining Test Liquids 2. The obtained Test Liquids 2 were separately added to the enzyme reaction solution to give final concentrations of 200 μM, 20 μM, 2 μM, and 0.2 μM. • (c) Test liquid preparation (3): As an OPRT inhibitor, citrazinic acid (Citra. A.) was dissolved to a concentration of 10 mM in 20 mM trishydroxyaminomethane-hydrochloric buffer solution (pH 8.0). Thereafter, the resulting product was diluted to concentrations of 1 mM, 100 μM, and 10 μM with a 10 mM potassium phosphate buffer solution, thereby obtaining Test Liquids (3). The obtained Test Liquids 3 were separately added to the enzyme reaction solution to give final concentrations of 200 μM, 20 μM, and 2 μM. • (d) Preparation of enzyme solution: The liver of an 8-week old SD rat was used as a DPD enzyme source, while human tumor cells that had been transplanted into a nude mouse and proliferated therein were used as an OPRT enzyme source. Specifically, immediately after a rat liver or successively-transplanted human tumor cells were extracted, a 50-mM tris-hydrochloric acid buffer solution (pH 8.0) containing 0.25 M saccharose, 5 mM magnesium chloride, and 1 mM dithreitol was added thereto to a concentration of 25% (w/v) and homogenized. Thereafter, ultracentrifugation was performed at 105,000 g for 60 minutes, and the obtained supernatant was used as a DPD enzyme solution or an OPRT enzyme solution. • (e) Enzyme reaction: A DPD enzyme reaction was carried out in accordance with the method of Tatsumi et al. (Gann, 78: 748-755 (1987)) using 5-FU labeled with tritium as a substrate. An OPRT enzyme reaction was carried out in accordance with the method of Shirasaka et al. (Cancer Res., 53: 4004-4009 (1993)) using 5-FU labeled with tritium as a substrate. Then, the activity of a control group (with no test compound) and test compound groups was measured. The percent inhibition of the test compound relative to DPD or OPRT was calculated using the following formula: [1-(the enzyme activity with the test compound/the enzyme activity of the control group)]×100(%).
The resulting product was diluted to concentrations of 1 mM, 100 μM, 10 μM, and 1 μM with a 10 mM potassium phosphate buffer solution (pH 6.0), thereby obtaining Test Liquids 1. The obtained Test Liquids 1 were separately added to the enzyme reaction solution described below to give final concentrations of 200 μM, 20 μM, 2 μM, and 0.2 μM. • (b) Preparation of enzyme solution: The liver of an 8-week old SD rat was used as a DPD enzyme source, while human tumor cells that had been transplanted into a nude mouse and proliferated therein were used as an OPRT enzyme source. Specifically, immediately after a rat liver or successively-transplanted human tumor cells were extracted, a 50-mM tris-hydrochloric acid buffer solution (pH 8.0) containing 0.25 M saccharose, 5 mM magnesium chloride, and 1 mM dithreitol was added thereto to a concentration of 25% (w/v) and homogenized. Thereafter, ultracentrifugation was performed at 105,000 g for 60 minutes, and the obtained supernatant was used as a DPD enzyme solution or an OPRT enzyme solution. • (c) Enzyme reaction: A DPD enzyme reaction was carried out in accordance with the method of Tatsumi et al. (Gann, 78: 748-755 (1987)) using 5-FU labeled with tritium as a substrate. […]

[1] = 0.2 μM, Table 2, read-out: DPD Inhibition (%)
[2] = 2 μM, Table 2, read-out: DPD Inhibition (%)

CCOCn1cc(F)c(=O)n(C(=O)c2cccc(C(=O)Oc3cc(OC(=O)c4cc(O)nc(O)c4)c(Cl)cn3)c2)c1=O [Compound I-2, 3-{3-[4-(2,6-dihydroxyisonicotinoyloxy)-5-chloro-2-pyridyloxycarbonyl]benzoyl}-1-ethoxymethyl-5-fluorouracil]
DPD Inhibitory Activity: Activity (Conc. 0.2 μM, Table 1): 0.613 nmol/mL/min | inhibition at 0.2 µM (Conc. 0.2 μM, Table 1, read-out: DPD Inhibitory Activity: Inhibition): 39.2% | DPD Inhibitory Activity: Activity (Conc. 2 μM, Table 1): 0.157 nmol/mL/min | inhibition at 2 µM (Conc. 2 μM, Table 1, read-out: DPD Inhibitory Activity: Inhibition): 84.4% | DPD Inhibitory Activity: Activity (Conc. 20 μM, Table 1): 0.075 nmol/mL/min | inhibition at 20 µM (Conc. 20 μM, Table 1): 92.6% | DPD Inhibitory Activity: Activity (Conc. 200 μM, Table 1): 0.100 nmol/mL/min | inhibition at 200 µM (Conc. 200 μM, Table 1): 90%

CCOCn1cc(F)c(=O)n(C(=O)c2cccc(C(=O)Oc3cc(OC(=O)c4cc(OC(=O)C5CCCC5)nc(OC(=O)C5CCCC5)c4)c(Cl)cn3)c2)c1=O [Compound I-9, 3-{3-[4-(2,6-dicyclopentanecarbonyloxyisonicotinoyloxy)-5-chloro-2-pyridyloxycarbonyl]benzoyl}-1-ethoxymethyl-5-fluorouracil]
inhibition at 0.2 µM [1]: 45.7% | inhibition at 2 µM [2]: 74.6%

CCOCn1cc(F)c(=O)n(C(=O)c2cccc(C(=O)Oc3cc(OC(=O)c4cc(OC(C)=O)nc(OC(C)=O)c4)c(Cl)cn3)c2)c1=O [Compound I-10, 3-{3-[4-(2,6-diacetyloxyisonicotinoyloxy)-5-chloro-2-pyridyloxycarbonyl]benzoyl}-1-ethoxymethyl-5-fluorouracil]
inhibition at 0.2 µM [1]: 43.9% | inhibition at 2 µM [2]: 77.2%

CCOCn1cc(F)c(=O)n(C(=O)c2cccc(C(=O)Oc3cc(OC(=O)c4cc(OC(=O)CC)nc(OC(=O)CC)c4)c(Cl)cn3)c2)c1=O [Compound I-11, 3-{3-[4-(2,6-dipropionyloxyisonicotinoyloxy)-5-chloro-2-pyridyloxycarbonyl]benzoyl}-1-ethoxymethyl-5-fluorouracil]
IC50 (5-FU as substrate, Test Example 4, read-out: IC50 of DPD activity inhibition): ~500 nM | DPD Inhibitory Activity: Activity (Conc. 0.2 μM, Table 5): 0.285 nmol/mL/min | inhibition at 0.2 µM (Conc. 0.2 μM, Table 5, read-out: DPD Inhibitory Activity: Inhibition): 56.8% | DPD Inhibitory Activity: Activity (Conc. 2 μM, Table 5): 0.216 nmol/mL/min | inhibition at 2 µM (Conc. 2 μM, Table 5, read-out: DPD Inhibitory Activity: Inhibition): 67.2% | DPD Inhibitory Activity: Activity (Conc. 20 μM, Table 5): 0.081 nmol/mL/min | inhibition at 20 µM (Conc. 20 μM, Table 5): 87.7%
